Measurements: patent publication US20240247021A1, “CRYSTAL FORMS OF KUDING SAPONIN A COMPOUND, PHARMACEUTICAL COMPOSITION AND USE THEREOF” (SHANGHAI KE PHARMACEUTICAL CO., LTD, priority 2021, published 2024)
Read-outs that look alike come from different tables or passages of the source.

Tests used:
[1] = Thermogravimetric analysis (TGA); format: physicochemical; conditions: 10 K/min, nitrogen
Description: Thermogravimetric analysis, or TGA for short, refers to a thermal analysis method for measuring the relationship of the mass of a sample to be detected with the change of temperature or time at a programmed temperature, and it is used to study information related to the quality of the sample, such as thermal stability, components of intermediate products possibly generated, etc. It is often used in combination with other thermal analysis methods for comprehensive thermal analysis. Methods for performing thermogravimetric analysis on the crystals are well known to those skilled in the art. In the present invention, the crystal forms A, C, and J of Kudinoside A are determined by using a thermogravimetric analyzer, and the specific measurement conditions are shown in Table 6.

[2] = Hygroscopicity test by dynamic vapor sorption (DVS); format: physicochemical; conditions: for weight change when the relative humidity is in the range of 0%-80% / hygroscopicity: DVS graph (FIGS. 1d, 2d, 3d); for hygroscopicity: judgment criteria of Table 7; for Increase in mass (relative humidity: 0%-80%) / Degree of hygroscopicity: DVS, 25° C., relative humidity 0%-80%; for Degree of hygroscopicity: criteria of Table 12
Method: Dynamic vapor sorption (DVS) is a test method for analyzing the moisture sorption performance of a sample and recording the moisture sorption isotherm, and it determines the stability of a compound by identifying its sorption capacity for moisture. Methods for performing dynamic vapor sorption analysis on the crystals are well known to those skilled in the art. In the present invention, the hygroscopicity of the crystal forms A, C, and J of Kudinoside A is determined by using a dynamic vapor sorption instrument, and the specific measurement conditions are shown in Table 7.
About 10 mg of each of the crystal forms A, C, and J obtained in Examples 1-3 was tested for its hygroscopicity using a dynamic vapor sorption (DVS) instrument (test conditions: a temperature of 25° C. and a relative humidity of 0%-80%), and the hygroscopicity of each crystal form was judged using the criteria shown in Table 12 below. For the steps and the judgment criteria of the hygroscopicity test, reference is made to the General Requirement 9103-Guidelines for Hygroscopicity in Pharmacopoeia of the People's Republic of China 2020 (Volume IV).

[3] = Competition experiment of crystal form A and crystal form J in water suspension; format: physicochemical; conditions: equal mixture of crystal forms A and J suspended in water, stirred at room temperature 3 days; XRPD of wet and dry sample
Method: Firstly, an initial mixing sample was prepared: samples of the crystal form A and the crystal form J of Kudinoside A with the equivalent quantity were uniformly mixed, and sampling was carried out for XRPD detection.
Water was added to the sample to form a suspension, which was stirred at room temperature and then centrifuged 3 days later, and sampling was carried out for XRPD detection (wet sample); after drying under vacuum at 30° C., the sample was subjected to XRPD detection (dry sample).

[4] = Conditions under which the crystal forms exist stably; format: physicochemical
[5] = format: physicochemical; conditions: uncovered, in the dark, 10 days; long-term (25±2° C., RH 65%±10%) and accelerated (40±2° C., RH 75%±10%) conditions
Method: 25 mg of the crystal form J was spread in a culture dish and left to stand, with the culture dish uncovered, in the dark for 10 days under long-term conditions (temperature: 25±2° C.; relative humidity: 65%±10%) and acceleration conditions (temperature: 40±2° C.; relative humidity: 75%±10%), and then the crystal form J was subjected to X-ray powder diffraction assay and thermogravimetric analysis. The X-ray powder diffractometer used and parameters thereof are shown in Table 4; the thermogravimetric analyzer used and parameters thereof are shown in Table 6.

[6] = Accelerated test (40 ± 2° C., humidity 75% ± 5%), 0 month
[7] = Accelerated test (40 ± 2° C., humidity 75% ± 5%), 1 month
[8] = Accelerated test (40 ± 2° C., humidity 75% ± 5%), 3 month
[9] = Accelerated test (40 ± 2° C., humidity 75% ± 5%), 4 month
[10] = Accelerated test (40 ± 2° C., humidity 75% ± 5%), 5 month
[11] = Accelerated test (40 ± 2° C., humidity 75% ± 5%), 6 month
[12] = Long-term test 1 (25 ± 2° C., humidity 60% ± 5%), 0 month
[13] = Long-term test 1 (25 ± 2° C., humidity 60% ± 5%), 1 month
[14] = Long-term test 1 (25 ± 2° C., humidity 60% ± 5%), 3 month
[15] = Long-term test 1 (25 ± 2° C., humidity 60% ± 5%), 4 month
[16] = Long-term test 1 (25 ± 2° C., humidity 60% ± 5%), 6 month
[17] = Long-term test 1 (25 ± 2° C., humidity 60% ± 5%), 9 month
[18] = Long-term test 1 (25 ± 2° C., humidity 60% ± 5%), 12 month
[19] = Long-term test 1 (25 ± 2° C., humidity 60% ± 5%), 24 month
[20] = Long-term test 2 (5 ± 3° C.), 0 month
[21] = Long-term test 2 (5 ± 3° C.), 1 month
[22] = Long-term test 2 (5 ± 3° C.), 3 month
[23] = Long-term test 2 (5 ± 3° C.), 4 month
[24] = Long-term test 2 (5 ± 3° C.), 6 month
[25] = Long-term test 2 (5 ± 3° C.), 9 month
[26] = Long-term test 2 (5 ± 3° C.), 12 month
[27] = Long-term test 2 (5 ± 3° C.), 24 month

C[C@@H]1O[C@@H](O[C@H]2[C@H](O[C@H]3CC[C@]4(C)[C@H]5C[C@H](O)C6=C7[C@]8(CC[C@](C)(OC8=O)[C@@]7(C)O)CC[C@@]6(C)[C@]5(C)CC[C@H]4C3(C)C)OC[C@H](O)[C@@H]2O[C@@H]2O[C@H](CO)[C@@H](O)[C@H](O)[C@H]2O)[C@H](O)[C@H](O)[C@H]1O [crystal form A, Kudinoside A]
decomposition temperature [1]: about 318 °C
Appearance [6]: White
Content of Kudinoside A [6]: 100.2 % of the labeled amount
Content of impurity F (Kudinoside D) [6]: 0.09%
Total content of impurities [6]: 0.09%
Appearance [7]: White
Content of Kudinoside A [7]: 101.7 % of the labeled amount
Content of impurity F (Kudinoside D) [7]: 0.17%
Total content of impurities [7]: 0.17%
Appearance [8]: White
Content of Kudinoside A [8]: 99.0 % of the labeled amount
Content of impurity F (Kudinoside D) [8]: 0.26%
Total content of impurities [8]: 0.43%
Appearance [9]: White
Content of Kudinoside A [9]: 98.0 % of the labeled amount
Content of impurity F (Kudinoside D) [9]: 0.29%
Total content of impurities [9]: 0.52%
Appearance [10]: White
Content of Kudinoside A [10]: 98.9 % of the labeled amount
Content of impurity F (Kudinoside D) [10]: 0.29%
Total content of impurities [10]: 0.60%
Appearance [11]: White
Content of Kudinoside A [11]: 98.4 % of the labeled amount
Content of impurity F (Kudinoside D) [11]: 0.29%
Total content of impurities [11]: 0.66%
Appearance [12]: White
Content of Kudinoside A [12]: 100.2 % of the labeled amount
Content of impurity F (Kudinoside D) [12]: 0.09%
Total content of impurities [12]: 0.09%
Appearance [13]: White
Content of Kudinoside A [13]: 101.4 % of the labeled amount
Content of impurity F (Kudinoside D) [13]: 0.09%
Total content of impurities [13]: 0.09%
Appearance [14]: White
Content of Kudinoside A [14]: 100.2 % of the labeled amount
Content of impurity F (Kudinoside D) [14]: 0.12%
Total content of impurities [14]: 0.12%
Appearance [15]: White
Content of Kudinoside A [15]: 99.2 % of the labeled amount
Content of impurity F (Kudinoside D) [15]: 0.13%
Total content of impurities [15]: 0.13%
Appearance [16]: White
Content of Kudinoside A [16]: 98.3 % of the labeled amount
Content of impurity F (Kudinoside D) [16]: 0.15%
Total content of impurities [16]: 0.15%
Appearance [17]: White
Content of Kudinoside A [17]: 98.8 % of the labeled amount
Content of impurity F (Kudinoside D) [17]: 0.19%
Total content of impurities [17]: 0.19%
Appearance [18]: White
Content of Kudinoside A [18]: 99.8 % of the labeled amount
Content of impurity F (Kudinoside D) [18]: 0.19%
Total content of impurities [18]: 0.19%
Appearance [19]: White
Content of Kudinoside A [19]: 100.2 % of the labeled amount
Content of impurity F (Kudinoside D) [19]: 0.21%
Total content of impurities [19]: 0.35%
Appearance [20]: White
Content of Kudinoside A [20]: 100.2 % of the labeled amount
Content of impurity F (Kudinoside D) [20]: 0.09%
Total content of impurities [20]: 0.09%
Appearance [21]: White
Content of Kudinoside A [21]: 101.8 % of the labeled amount
Content of impurity F (Kudinoside D) [21]: 0.08%
Total content of impurities [21]: 0.08%
Appearance [22]: White
Content of Kudinoside A [22]: 99.9 % of the labeled amount
Content of impurity F (Kudinoside D) [22]: 0.10%
Total content of impurities [22]: 0.10%
Appearance [23]: White
Content of Kudinoside A [23]: 99.8 % of the labeled amount
Content of impurity F (Kudinoside D) [23]: 0.08%
Total content of impurities [23]: 0.08%
Appearance [24]: White
Content of Kudinoside A [24]: 98.6 % of the labeled amount
Content of impurity F (Kudinoside D) [24]: 0.09%
Total content of impurities [24]: 0.09%
Appearance [25]: White
Content of Kudinoside A [25]: 99.2 % of the labeled amount
Content of impurity F (Kudinoside D) [25]: 0.09%
Total content of impurities [25]: 0.09%
Appearance [26]: White
Content of Kudinoside A [26]: 99.8 % of the labeled amount
Content of impurity F (Kudinoside D) [26]: 0.09%
Total content of impurities [26]: 0.09%
Appearance [27]: White
Content of Kudinoside A [27]: 101.3 % of the labeled amount
Content of impurity F (Kudinoside D) [27]: 0.08%
Total content of impurities [27]: 0.08%
weight change when the relative humidity is in the range of 0%-80% [2]: about 12%
hygroscopicity [2]: hygroscopic
Increase in mass (relative humidity: 0%-80%) [2]: 12%
Degree of hygroscopicity [2]: hygroscopic
Degree of hygroscopicity ([2]; listed as A): Hygroscopic (The increase in mass is less than 15% but not less than 2%)
crystal form conversion [3]: tends to convert to the crystal form J
conditions under which the crystal form exists stably [4]: can exist stably as a dry powder at room temperature

C[C@@H]1O[C@@H](O[C@H]2[C@H](O[C@H]3CC[C@]4(C)[C@H]5C[C@H](O)C6=C7[C@]8(CC[C@](C)(OC8=O)[C@@]7(C)O)CC[C@@]6(C)[C@]5(C)CC[C@H]4C3(C)C)OC[C@H](O)[C@@H]2O[C@@H]2O[C@H](CO)[C@@H](O)[C@H](O)[C@H]2O)[C@H](O)[C@H](O)[C@H]1O [crystal form J, Kudinoside A]
characteristic peaks on the X-ray powder diffraction pattern (crystal form change) [5]: not changed
weight loss condition (TGA) [5]: not changed
decomposition temperature [1]: about 324 °C
weight change when the relative humidity is in the range of 0%-80% [2]: about 4.7%
hygroscopicity [2]: hygroscopic
Increase in mass (relative humidity: 0%-80%) [2]: 4.7%
Degree of hygroscopicity [2]: hygroscopic
Degree of hygroscopicity ([2]; listed as J): Hygroscopic (The increase in mass is less than 15% but not less than 2%)
conditions under which the crystal form exists stably [4]: can exist stably as a dry powder at room temperature
